Values joined by “and” are separate entries in the source; they are usually repeats but may differ in a detail not shown here. Equal values may be shown once. Read-outs that look alike come from different tables or passages of the source.
Assays:
[1] = Phase I single-dose study, moderate hepatic impairment versus normal hepatic function; assay type: in vivo, human; conditions: for AUC(0-inf) / AUC(0-t) / Cmax / Vd/F / half-life / Tmax / CL renal: both sexes, human, oral, 450 mg; for AUC(0-inf) / AUC(0-t) / Cmax / Vd/F / half-life / Tmax: plasma; for half-life: read-out: Elimination Half-life (t1/2) (converted); for Tmax: median; for CL renal: urine, read-out: CLr, renal clearance (converted)
Experimental: A phase I, open-label, parallel-group, single-dose study was conducted to evaluate the pharmacokinetics (PK) of 450 mg vadadustat administered in adults with moderate hepatic impairment (Child-Pugh Class B) versus those with normal hepatic function. The pharmacokinetic (pK) parameters of Compound 1 were characterized. Safety and tolerability were assessed throughout the study.
Inclusion criteria: participants were male and female adults between 18 and 70 years of age, with either normal hepatic function or moderate hepatic impairment based on the Child-Pugh classification (Child-Pugh Class B [score 7-9]). Moderate hepatic impairment was defined by the presence and severity of elevated bilirubin levels, decreased serum albumin levels, elevated international normalized ratios >2.20, ascites, and hepatic encephalopathy.
Pharmacokinetics. […] PK parameters Ae0-72, Fe %0-72, and CL, were estimated from the urine concentration-time profiles.
8 subjects with hepatic impairment and 8 matched subjects with normal hepatic function were enrolled in the study. All subjects received a single oral 450-mg dose of vadadustat on Day 1 and were required to fast for at least 10 hours before dosing and for 4 hours after dosing.

[2] = Phase I calcium acetate interaction study; assay type: in vivo, human; conditions: for AUC(0-t) / Cmax / Tmax / AUC(0-inf) / clearance / half-life / Vd: human, plasma, oral; for Tmax: median; for clearance: read-out: Clearance (ClB) (converted); for half-life: read-out: Elimination half-life (t1/2) (converted); for Vd: read-out: Volume of distribution (Vc)
Experimental: A phase I, open-label, fixed-sequence study was conducted in healthy adult subjects to assess the effect of 1) a single oral dose of calcium acetate on the pharmacokinetics of a single oral dose of vadadustat.
The study included screening (28 days maximum), 9-day treatment period, and a 14-day follow-up period post last dose.
Pharmacokinetics. A predose PK blood sample was collected on Day 1. After each dose of vadadustat administered (Days 1, 3, 5, and 7), blood samples for PK analysis were collected at the following time points: predose and 0.5, 1, 1.5, 2, 3, 4, 6, 9, 12, 16, 24, and 48 hours after each dose of vadadustat. The 48-hour postdose sample was collected before vadadustat administration on Days 3, 5, and 7. The following parameters were calculated and analyzed: AUC0-∞, AUC0-last, Cmax, Tmax, Kel, CIB, Vc/F, and t1/2.
Subjects were dosed approximately at the same designated time on each dosing day, where applicable. Study drugs were administered with approximately 8 ounces (240 mL) of water at room temperature in a seated position. Subjects were instructed to drink the full 8 ounces of water, and not to chew or break the tablets/gelcaps.
The 9-day treatment period was conducted as follows: • Day 1: vadadustat administered immediately after consuming breakfast. • Day 2: wash-out (no investigational product administration). • Day 3: vadadustat administered concomitantly with the requisite phosphate binder immediately after consuming breakfast. • Day 4: wash-out (no investigational product administration). • Day 5: vadadustat administered in fasted condition and the phosphate binder administered 1 hour later (breakfast must be served within 2 minutes after phosphate binder administration and consumed immediately after it is served). • Day 6: wash-out (no investigational product administration). • Day 7: phosphate binder administered immediately after consuming breakfast; vadadustat administered 2 hours after the phosphate binder was administered. • Day 8: wash-out (no investigational product administration). • Day 9: subjects discharged from the Clinical Research Unit (CRU) after the 48-hour postdose PK blood sample has been collected.
A single oral dose of vadadustat 300 mg (2×150 mg tablets) was administered on Days 1, 3, 5, and 7. Phosphate binder that is calcium acetate (1334 mg, 2×667 mg gelcaps) was administered on Days 3, 5, and 7.

[3] = single 450 mg, Moderate Hepatic Impairment, mean ± SD
[4] = single 450 mg, Moderate Hepatic Impairment
[5] = single 450 mg, Normal Liver Function, mean ± SD
[6] = single 450 mg, Normal Liver Function
[7] = concomitant administration of phosphate binder, ANOVA
[8] = 300 mg, Concomitant administration with calcium acetate 1334 mg after breakfast
[9] = 300 mg, Vadadustat 300 mg alone, immediately after breakfast
[10] = 300 mg, Vadadustat administered 1 hour prior to calcium acetate, fasting
[11] = 300 mg, Vadadustat administered 2 hours after calcium acetate

With `O=C(O)CNC(=O)c1ncc(-c2cccc(Cl)c2)cc1O` [Compound 1, {[5-(3-chlorophenyl)-3-hydroxypyridine-2-carbonyl]amino}acetic acid] the AUC(0-inf) ([1]; AUC0-inf, Geometric LSM, Total Compound 1, single 450 mg, Moderate Hepatic Impairment) was 414 µg·h/mL, the AUC(0-inf) ([1]; AUC0-inf, Geometric LSM, Total Compound 1, single 450 mg, Normal Liver Function) was 394 µg·h/mL and the AUC(0-t) ([1]; AUC0-last, Geometric LSM, Total Compound 1, single 450 mg, Moderate Hepatic Impairment) was 410 µg·h/mL. It also gave an AUC(0-t) ([1]; AUC0-last, Geometric LSM, Total Compound 1, single 450 mg, Normal Liver Function) of 389 µg·h/mL, a Cmax ([1]; Cmax, Geometric LSM, Total Compound 1, single 450 mg, Moderate Hepatic Impairment) of 52000 ng/mL and a Cmax ([1]; Cmax, Geometric LSM, Total Compound 1, single 450 mg, Normal Liver Function) of 50000 ng/mL. The Vd/F ([1]; Volume of distribution (Vd/F), Unbound Compound 1, single 450 mg, Moderate Hepatic Impairment, mean ± SD) was 1490 ± 542 L, the Vd/F ([1]; Volume of distribution (Vd/F), Unbound Compound 1, single 450 mg, Normal Liver Function, mean ± SD) was 1330 ± 222 L and the AUC(0-inf) ([1]; single 450 mg, Moderate Hepatic Impairment, mean ± SD, read-out: AUC0-inf, plasma, total) was 436 ± 156 µg·h/mL. It also gave an AUC(0-t) ([1]; single 450 mg, Moderate Hepatic Impairment, mean ± SD, read-out: AUC0-last, plasma, total) of 432 ± 153 µg·h/mL, a Cmax ([1]; single 450 mg, Moderate Hepatic Impairment, mean ± SD, read-out: Cmax, plasma, total) of 53000 ± 12000 ng/mL and a half-life [1, 3] of 7.8 h. For the same compound, the Vd/F ([1]; single 450 mg, Moderate Hepatic Impairment, mean ± SD, read-out: Volume of distribution (Vd/F), total) was 12.3 ± 4 L, the Tmax [1, 4] was 2 h and the AUC(0-inf) ([1]; single 450 mg, Normal Liver Function, mean ± SD, read-out: AUC0-inf, plasma, total) was 397 ± 72 µg·h/mL. For the same compound, the AUC(0-t) ([1]; single 450 mg, Normal Liver Function, mean ± SD, read-out: AUC0-last, plasma, total) was 395 ± 72 µg·h/mL, the Cmax ([1]; single 450 mg, Normal Liver Function, mean ± SD, read-out: Cmax, plasma, total) was 53000 ± 15000 ng/mL and the half-life [1, 5] was 5.8 h. It also gave a Vd/F ([1]; single 450 mg, Normal Liver Function, mean ± SD, read-out: Volume of distribution (Vd/F), total) of 9.6 ± 1.9 L, a Tmax [1, 6] of 2.5 h and a CL renal [1, 4] of 0.105 mL/min. For the same compound, the CL renal [1, 6] was 0.122 mL/min, the “impact of moderate hepatic impairment on total systemic exposure” value ([1]; single 450 mg) was “no significant impact on total systemic exposure” and the “AUC0-inf, Geometric LSM, Unbound Compound 1” value [1, 4] was 3.47 µg·h/mL. For the same compound, the “AUC0-last, Geometric LSM, Unbound Compound 1” value [1, 4] was 3.44 µg·h/mL, the “Ae0-72, cumulative amount excreted in urine up to 72 hours” value [1, 4] was 2.45 ± 1.611 mg and the “Cmax, Geometric LSM, Unbound Compound 1” value [1, 4] was 433 ng/mL. For the same compound, the “Fe%0-72, cumulative fraction excreted in urine” value [1, 4] was 0.545% and 0.545 ± 0.3580%, the “AUC0-inf, Unbound Compound 1” value [1, 3] was 3.78 ± 1.738 µg·h/mL and the “AUC0-last, Unbound Compound 1” value [1, 3] was 3.75 ± 1.709 µg·h/mL. The “Clearance (CL/F), Unbound Compound 1” value [1, 3] was 140 ± 56.02 L/h, the “Clearance (CL/F), total” value [1, 3] was 1.2 ± 0.4 L/h and the “Cmax, Unbound Compound 1” value [1, 3] was 451 ± 133.2 ng/mL. For the same compound, the “Elimination Half-life (t1/2)” value [1, 3] was 7.75 ± 2.5 h, the “AUC0-inf, Geometric LSM, Unbound Compound 1” value [1, 6] was 2.79 µg·h/mL and the “AUC0-last, Geometric LSM, Unbound Compound 1” value [1, 6] was 2.78 µg·h/mL. For the same compound, the “Ae0-72, cumulative amount excreted in urine up to 72 hours” value [1, 6] was 2.76 ± 1.214 mg, the “Cmax, Geometric LSM, Unbound Compound 1” value [1, 6] was 360 ng/mL and the “Fe%0-72, cumulative fraction excreted in urine” value [1, 6] was 0.614% and 0.614 ± 0.2698%. For the same compound, the “AUC0-inf, Unbound Compound 1” value [1, 5] was 2.91 ± 0.9049 µg·h/mL, the “AUC0-last, Unbound Compound 1” value [1, 5] was 2.90 ± 0.9001 µg·h/mL and the “Clearance (CL/F), Unbound Compound 1” value [1, 5] was 167 ± 49.10 L/h. The “Clearance (CL/F), total” value [1, 5] was 1.2 ± 0.3 L/h, the “Cmax, Unbound Compound 1” value [1, 5] was 378 ± 113.1 ng/mL and the “Elimination Half-life (t1/2)” value [1, 5] was 5.81 ± 1.4 h. The “serious AEs” value ([1]; single 450 mg, both groups) was “No serious AEs”, the “dose excreted in the urine as Compound 1” value ([1]; single 450 mg, both moderate hepatic impairment and normal hepatic function) was under 1% and the “reduction of AUC0-last and AUC0-∞” value [2, 7] was “about 55%”. For the same compound, the “reduction of Cmax” value [2, 7] was “about 51%”, the AUC(0-t) [2, 8] was 77.4 ± 31.7 µg·h/mL and the Cmax [2, 8] was 11300 ± 4390 ng/mL. For the same compound, the Tmax [2, 8] was 4 h, the AUC(0-inf) ([2]; 300 mg, Concomitant administration with calcium acetate 1334 mg after breakfast, read-out: AUC0-∞) was 79.6 ± 32.7 µg·h/mL and the clearance [2, 8] was 77.3 mL/min. For the same compound, the half-life [2, 8] was 4.58 ± 0.9 h, the Vd [2, 8] was 29.8 ± 14.6 L and the AUC(0-t) [2, 9] was 163 ± 45.7 µg·h/mL. The Cmax [2, 9] was 21900 ± 5610 ng/mL, the Tmax [2, 9] was 3.93 h and the AUC(0-inf) ([2]; 300 mg, Vadadustat 300 mg alone, immediately after breakfast, read-out: AUC0-∞) was 166 ± 45.4 µg·h/mL. It also gave a clearance [2, 9] of 31.8 mL/min, a half-life [2, 9] of 4.75 ± 1.2 h and a Vd [2, 9] of 12.6 ± 2.41 L. For the same compound, the AUC(0-t) [2, 10] was 130 ± 36.2 µg·h/mL, the Cmax [2, 10] was 25000 ± 9560 ng/mL and the Tmax [2, 10] was 1.44 h. The AUC(0-inf) ([2]; 300 mg, Vadadustat administered 1 hour prior to calcium acetate, fasting, read-out: AUC0-∞) was 133 ± 36.8 µg·h/mL, the clearance [2, 10] was 40.3 mL/min and the half-life [2, 10] was 4.47 ± 0.75 h. For the same compound, the Vd [2, 10] was 15.3 ± 3.25 L, the AUC(0-t) [2, 11] was 132 ± 44.3 µg·h/mL and the Cmax [2, 11] was 24600 ± 7130 ng/mL. For the same compound, the Tmax [2, 11] was 2.97 h, the AUC(0-inf) ([2]; 300 mg, Vadadustat administered 2 hours after calcium acetate, read-out: AUC0-∞) was 135 ± 44.3 µg·h/mL and the clearance [2, 11] was 42.2 mL/min. The half-life [2, 11] was 4.84 ± 1.03 h, the Vd [2, 11] was 17.8 ± 9.99 L and the AUC(0-inf) ([2]; vadadustat administered concurrently with calcium acetate, read-out: geometric LS mean AUC0-∞) was 72.4 µg·h/mL. The “changes in vadadustat exposure” value ([2]; vadadustat administered 1 hour prior to calcium acetate) was “within the prespecified no-effect boundaries of 80% to 125%” and the “changes in vadadustat exposure” value ([2]; vadadustat administered 2 hours after calcium acetate) was “within the prespecified no-effect boundaries of 80% to 125%”.
